Source: paper PMC5554137, “Evaluation of novel factor Xa inhibitors from Oxya chinensis sinuosa with anti-platelet aggregation activity” (Scientific Reports, 2017)

What was measured:
FXa [1] = target: T1, FXa (Homo sapiens, UniProt P00742); test: Chromogenic substrate assay, Ki determination, Factor Xa; type: biochemical; conditions: for Ki: substrate S-2765 (Table 3), mean ± SD (n = 5)
T1 construct: purchased Haematologic Technologies (Essex Junction, VT, USA)
Experimental: (§1) The inhibitor (I) constants (Ki) were determined for the inhibition of a series of human enzymes (FXa, thrombin, trypsin, plasmin, protein Ca, streptokinase, tPA, and urokinase) by each compound. Chromogenic substrate assays were performed using a Labsystems IEMS (Cergy Pontoise, France) microtiter plate reader. In each assay, the compound was tested at a minimum of seven concentrations in duplicate to obtain an inhibition curve. Assays were performed according to the following general procedure. In a 96-well microtiter plate, 25 μL of compound, inhibitor solution or buffer was added to 50 μL of substrate. A volume of 25 μL of enzyme solution was added just before the plate was placed in the microtiter plate reader for 1 h at 37 °C. The hydrolysis of the substrate yields p-nitroaniline, which was continuously monitored spectrophotometrically at 405 nm. Data were collected and the initial rate of substrate hydrolysis [Vo (mOD/minute)] was calculated. Following Michaelis-Menten kinetics, the affinity of the enzyme for the substrate, in the absence of the inhibitor (Km) and in the presence of an inhibitor (Kp), was determined to be the negative inverse x-intercept of Lineweaver–Burk plots. The dissociation constant for inhibition (Ki) was calculated using the following equation: Ki = (Km·[I])/(Kp − Km) as described by Williams and Morrison[40].

α-Thrombin = target: T2, α-Thrombin (Homo sapiens, UniProt P00734); test: Chromogenic substrate assay, Ki determination, α-Thrombin; type: biochemical; conditions: for Ki: substrate S-2238
T2 construct: FXa converts prothrombin to thrombin; purchased Haematologic Technologies (Essex Junction, VT, USA)
Experimental: as §1

Trypsin = test: Chromogenic substrate assay, Ki determination, Trypsin; type: biochemical, human; conditions: for Ki: substrate S-2222
Experimental: as §1

Plasmin = Plasmin (Homo sapiens, UniProt P00747); test: Chromogenic substrate assay, Ki determination, Plasmin; type: biochemical; conditions: for Ki: substrate S-2251
Plasmin, sequence (P00747 581-810 limits assumed): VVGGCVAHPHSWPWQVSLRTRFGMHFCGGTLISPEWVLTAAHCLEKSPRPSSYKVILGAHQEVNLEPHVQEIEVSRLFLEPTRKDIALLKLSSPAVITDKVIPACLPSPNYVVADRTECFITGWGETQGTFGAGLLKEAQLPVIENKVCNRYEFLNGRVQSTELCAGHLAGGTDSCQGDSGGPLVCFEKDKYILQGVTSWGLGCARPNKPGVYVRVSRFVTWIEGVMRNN
Plasmin, sequence (P00747 97-580 limits assumed): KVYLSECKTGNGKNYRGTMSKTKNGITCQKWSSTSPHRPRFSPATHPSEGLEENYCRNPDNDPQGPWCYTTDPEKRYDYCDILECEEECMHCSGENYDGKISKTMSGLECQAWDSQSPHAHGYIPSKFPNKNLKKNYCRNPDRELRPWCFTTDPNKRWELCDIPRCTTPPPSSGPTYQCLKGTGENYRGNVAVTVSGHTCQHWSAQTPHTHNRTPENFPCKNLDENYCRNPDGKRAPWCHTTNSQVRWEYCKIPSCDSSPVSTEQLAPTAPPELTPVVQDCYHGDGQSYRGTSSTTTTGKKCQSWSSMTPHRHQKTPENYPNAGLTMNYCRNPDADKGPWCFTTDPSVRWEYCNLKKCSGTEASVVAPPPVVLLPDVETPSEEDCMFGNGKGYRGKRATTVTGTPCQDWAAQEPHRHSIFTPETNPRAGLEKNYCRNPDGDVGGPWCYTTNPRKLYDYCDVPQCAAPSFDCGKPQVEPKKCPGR
Experimental: as §1

Protein Ca = Protein Ca (Homo sapiens, UniProt P04070); test: Chromogenic substrate assay, Ki determination, Protein Ca; type: biochemical; conditions: for Ki: substrate S-2366
Protein Ca, sequence (P04070 212-461 limits assumed): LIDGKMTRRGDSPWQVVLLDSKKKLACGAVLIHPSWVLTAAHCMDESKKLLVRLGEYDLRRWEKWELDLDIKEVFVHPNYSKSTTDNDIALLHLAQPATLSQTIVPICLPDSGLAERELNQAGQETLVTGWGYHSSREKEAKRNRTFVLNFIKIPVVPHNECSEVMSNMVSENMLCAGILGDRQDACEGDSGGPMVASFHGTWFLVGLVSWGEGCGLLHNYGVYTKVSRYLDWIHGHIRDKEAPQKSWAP
Protein Ca, sequence (P04070 43-197 limits assumed): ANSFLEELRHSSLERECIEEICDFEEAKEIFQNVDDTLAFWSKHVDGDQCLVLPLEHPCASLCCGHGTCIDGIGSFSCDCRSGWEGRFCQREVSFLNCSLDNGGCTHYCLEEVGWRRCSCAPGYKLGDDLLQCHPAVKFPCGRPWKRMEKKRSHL
Experimental: as §1

[2] = tested on: Streptokinase (Homo sapiens); test: Chromogenic substrate assay, Ki determination, Streptokinase; type: biochemical; conditions: for Ki: substrate S-2251
Streptokinase (Homo sapiens), sequence (P00747 581-810 limits assumed): as the sequence (P00747 581-810 limits assumed) above
Experimental: as §1

tPA = tPA (Homo sapiens, UniProt P00750); test: Chromogenic substrate assay, Ki determination, tPA; type: biochemical; conditions: for Ki: substrate S-2228
tPA, sequence (P00750 36-562): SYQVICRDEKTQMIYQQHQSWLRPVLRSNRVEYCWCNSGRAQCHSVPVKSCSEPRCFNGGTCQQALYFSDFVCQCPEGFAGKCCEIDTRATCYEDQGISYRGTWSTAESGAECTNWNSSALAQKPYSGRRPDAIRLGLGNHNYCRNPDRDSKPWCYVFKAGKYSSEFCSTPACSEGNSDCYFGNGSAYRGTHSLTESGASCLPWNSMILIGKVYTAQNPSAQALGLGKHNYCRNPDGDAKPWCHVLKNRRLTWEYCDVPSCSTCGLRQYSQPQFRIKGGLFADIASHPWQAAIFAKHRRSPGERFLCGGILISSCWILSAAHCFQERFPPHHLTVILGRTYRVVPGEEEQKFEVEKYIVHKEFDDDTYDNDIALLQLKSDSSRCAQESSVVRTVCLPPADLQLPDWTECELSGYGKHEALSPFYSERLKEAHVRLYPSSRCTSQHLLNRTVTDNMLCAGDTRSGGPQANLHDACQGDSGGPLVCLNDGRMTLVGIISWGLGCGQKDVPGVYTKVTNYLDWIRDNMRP
Experimental: as §1

Urokinase = Urokinase (Homo sapiens, UniProt P00749); test: Chromogenic substrate assay, Ki determination, Urokinase; type: biochemical; conditions: for Ki: substrate S-2444
Experimental: as §1

FXa [3] = target: T1, FXa; test: Inhibition of amidolytic activity of FXa toward S-2222 (Michaelis-Menten, Lineweaver-Burk; with or without TFPI); type: biochemical; conditions: for type of inhibition of FXa (Lineweaver-Burk plots) / slope of inhibition activity plot: S-2222; for slope of inhibition activity plot: FXa; for Ki: substrate S-2222
Experimental: To elucidate the mechanisms responsible for inhibition of coagulation and platelet aggregation by compounds 1–4, inhibition of FXa activity was determined using chromogenic substrates. […] We observed a decrease in Vmax, with no effect on the Km of FXa toward S-2222 in the presence of compound 1. […] We also observed a slope of 0.401 for the control without compound 2, and slopes of 0.442 and 0.465 for compound 2 at concentrations of 2 and 5 µM, respectively. […] We observed a decrease in Vmax, with no effect on the Km of FXa toward S-2222 in the presence of compound 2. […] Inhibition activity plots were obtained for different concentrations of compound 3, showing a slope of 0.388 for the control without compound 3, and slopes of 0.408 and 0.464 for compound 3 at concentrations of 2 and 5 µM, respectively. […] We also observed a slope of 0.363 for the control without compound 4, and slopes of 0.376 and 0.398 for compound 4 at concentrations of 2 and 5 µM, respectively. […] We observed a decrease in Vmax, with no effect on the Km of FXa toward S-2222 in the presence of compound 4.
Figure 6 Effects of compounds 1–4 on inhibition and production of FXa. […] The plots represent means of three independent measurements. (E) Human umbilical vein endothelial cells (HUVECs) were pre-incubated with the indicated concentration of each compound for 10 min. HUVECs stimulated with tumor necrosis factor-α (TNF-α, 10 ng/mL for 6 h) were incubated with FVIIa (10 nM) and FX (175 nM) in the absence or presence of anti-TF IgG (25 µg/mL). FXa production was determined as described in the “ Supplementary Materials and Methods” section. D = 0.2% DMSO used as the vehicle control. (F) Inhibition of FXa by each compound (5 μM) with or without TFPI (2 nM) was monitored using a chromogenic assay. ^* p < 0.05 vs. TNF-α alone (E) or each compound (F) alone, analyzed via one-way ANOVA, followed by Tukey multiple comparison testing.
Each compound with or without TFPI was dissolved in 50 mM Tris-HCl buffer (pH 7.4) containing 7.5 mM EDTA and 150 mM NaCl. Following a 2-min incubation at 37 °C, FXa solution (150 μL, 1 U/mL) was added, followed by incubation at 37 °C for 1 min. S-2222 (an FXa substrate, 150 μL, 1.5 mM) solution was subsequently added, and the absorbance at 405 nm was monitored for 20 min using a spectrophotometer (TECAN, Männedorf, Switzerland). The absorbance-time curve and the slope of the curve (Vi) were used to represent the activity of the enzyme. Distilled water served as a control (the slope of curve V0). The inhibitory effect was calculated according to equation (1):1 Inhibitoryrate(%)=(V0−Vi)/V0×100 where V0 represents the slope of the vehicle and Vi represents the slope of the samples.

C57BL/6 mice = test: Tail bleeding time; type: in vivo; conditions: tail-cutting assay, mean ± SD, n = 10
Experimental: Figure 4 Effects of compounds 1–4 on clotting and bleeding time. (A) One hour after administration (intravenous injection) of compound 1 (white box), 2 (light gray box), 3 (dark gray box), or 4 (black box), blood was collected from the mice and platelet-poor plasma (PPP) was obtained by centrifugation at 2,000 × g for 10 min at room temperature to test ex vivo activated partial thromboplastin time (aPTT). (B) Each group received a daily intravenous injection of the indicated compound for four consecutive days. Fifteen minutes after the last administration, blood samples were collected and in vivo aPTT was measured. (C) Fifteen minutes after administration of each compound or aspirin (4.5 or 9 mg/kg for 30 min) or the vehicle, tail tips (3 mm long) were cut from each mouse, and the remaining tail was immediately immersed into saline at 37 °C. Accumulated bleeding times (including periods of re-bleeding) were recorded. D = 0.2% DMSO used as the vehicle control. Data are presented as means ± SD of three independent experiments. *p < 0.05 vs. vehicle alone, analyzed by one-way ANOVA, followed by Tukey multiple comparison testing.
To assess bleeding risk incurred by compounds 1–4, we measured bleeding time in mice treated with each compound (up to 30 µM/mouse) by using a tail-cutting assay; the concentration used was three-fold higher than the doses used for the in vivo anti-thrombotic studies. Aspirin-treated mice (9 mg/kg) served as positive controls. […] However, the bleeding time in mice treated with compounds 1–4 was shorter than that observed in mice treated with aspirin ([…], mean ± SD, n = 10). The dose required to avoid thrombus formation and to protect against paralysis or death in mice was determined to be 5 µM per mouse (Fig. 7C).
Tail bleeding times were measured using the method described by Dejana et al.[37]. Briefly, C57BL/6 mice were fasted overnight prior to the experiments. […] after the i.v. administration of each compound, the tails of the mice were transected […] from their tips. Bleeding time was defined as the time elapsed until bleeding stopped. Bleeding times that exceeding 15 min were recorded as 15 min.

T1 sequence (P00742 235-488 limits assumed): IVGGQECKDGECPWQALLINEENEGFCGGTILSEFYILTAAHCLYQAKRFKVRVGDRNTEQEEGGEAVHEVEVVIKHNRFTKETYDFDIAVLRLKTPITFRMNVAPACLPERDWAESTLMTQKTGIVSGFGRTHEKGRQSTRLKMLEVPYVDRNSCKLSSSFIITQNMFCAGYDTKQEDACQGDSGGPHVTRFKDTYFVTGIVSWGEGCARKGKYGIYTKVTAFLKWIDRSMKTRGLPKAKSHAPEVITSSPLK
T1 sequence (P00742 41-179 limits assumed): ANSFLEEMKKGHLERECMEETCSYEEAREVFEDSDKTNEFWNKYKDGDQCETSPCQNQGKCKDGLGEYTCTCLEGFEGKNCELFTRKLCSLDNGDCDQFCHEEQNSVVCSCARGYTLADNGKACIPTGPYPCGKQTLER

| Compound | Ratio = Ki enzyme/Ki Factor Xa, Factor Xa (FXa [1]) | Ki (FXa [1]) | Ratio = Ki enzyme/Ki Factor Xa, α-Thrombin (α-Thrombin) | Ki (α-Thrombin) | Ratio = Ki enzyme/Ki Factor Xa, Trypsin (Trypsin) | Ki (Trypsin) | Ratio = Ki enzyme/Ki Factor Xa, Plasmin (Plasmin) | Ki (Plasmin) | Ratio = Ki enzyme/Ki Factor Xa, Protein Ca (Protein Ca) | Ki (Protein Ca) | Ratio = Ki enzyme/Ki Factor Xa, Streptokinase [2] | Ki [2] | Ratio = Ki enzyme/Ki Factor Xa, tPA (tPA) | Ki (tPA) | Ratio = Ki enzyme/Ki Factor Xa, Urokinase (Urokinase) | Ki (Urokinase) | Km of FXa toward S-2222 in the presence of compound (FXa [3]) | Vmax of FXa toward S-2222 in the presence of compound (FXa [3]) | type of inhibition of FXa (Lineweaver-Burk plots) (FXa [3]) | slope of inhibition activity plot (FXa [3]; compound at 2 µM) | further results |
| --- | --- | --- | --- | --- | --- | --- | --- | --- | --- | --- | --- | --- | --- | --- | --- | --- | --- | --- | --- | --- | --- |
| CC(=O)NCCc1ccc2c(c1)O[C@H](NC(C)=O)[C@@H](c1ccc(O)c(O)c1)O2 [Compound 3, (2 R,3 S)-2-(3′,4′-dihydroxyphenyl)-3-acetylamino-6-(N-acetyl-2″-aminoethyl)-1,4-benzodioxane] | 1 | 4.45 ± 0.37 µM | >100 | > 500 µM | >100 | > 500 µM | >100 | > 500 µM | >100 | > 500 µM | >100 | > 500 µM | >100 | > 500 µM | >100 | > 500 µM | no effect | decrease | noncompetitive inhibition | 0.408 | slope of inhibition activity plot (FXa [3]; compound at 5 µM): 0.464; Ki (FXa [3]): 4.45 µM; bleeding time (C57BL/6 mice; mice treated with 10 µM): 12.1 ± 1.1 min; bleeding time (C57BL/6 mice; mice treated with 30 µM): 12.3 ± 1.3 min |
| CC(=O)NCCc1ccc2c(c1)O[C@H](c1ccc(O)c(O)c1)[C@@H](NC(C)=O)O2 [Compound 4, (2 R,3 S)-2-(3′,4′-dihydroxyphenyl)-3-acetylamino-7-(N-acetyl-2″-aminoethyl)-1,4-benzodioxane] | 1 | 4.72 ± 0.31 µM | >100 | > 500 µM | >100 | > 500 µM | >100 | > 500 µM | >100 | > 500 µM | >100 | > 500 µM | >100 | > 500 µM | >100 | > 500 µM | no effect | decrease | noncompetitive inhibition | 0.376 | slope of inhibition activity plot (FXa [3]; compound at 5 µM): 0.398; Ki (FXa [3]): 4.72 µM |
| CC(=O)NCCc1ccc2c(c1)O[C@@H](NC(C)=O)[C@@H](c1ccc(O)c(O)c1)O2 [Compound 2, (2 R,3 R)-2-(3′,4′-dihydroxyphenyl)-3-acetylamino-6-(N-acetyl-2″-aminoethyl)-1,4-benzodioxane] | 1 | 4.13 ± 0.43 µM | >100 | > 500 µM | >100 | > 500 µM | >100 | > 500 µM | >100 | > 500 µM | >100 | > 500 µM | >100 | > 500 µM | >100 | > 500 µM | no effect | decrease | noncompetitive inhibition | 0.442 | slope of inhibition activity plot (FXa [3]; compound at 5 µM): 0.465; Ki (FXa [3]): 4.13 µM; bleeding time (C57BL/6 mice; mice treated with 10 µM): 12.5 ± 1.2 min; bleeding time (C57BL/6 mice; mice treated with 30 µM): 13.5 ± 1.1 min |
